Test results published in patent US4065495A (Zaidan Hojin Biseibutsu Kagaku Kenkyu Kai, priority 1975, dated 1977).
≈ marks a conversion by molar mass, not a printed value.

Columns and labels:
[1] = system: Escherichia coliK-12; experiment: Minimum inhibitory concentration, Escherichia coli K-12; assay type: cell-based; details: 0.5% peptone agar, 37° C., 17 hours
Protocol: (§1) *Minimum inhibitory concentrations were determined on a 0.5% peptone agar
(§2) by incubation at 37° C. for 17 hours.

[2] = system: Salmonella typhi T-63; experiment: Minimum inhibitory concentration, Salmonella typhi T-63; assay type: cell-based; details: Salmonella enterica, 17 h, read-out: Minimum Inhibitory Concentration
Protocol: as §1, §2

[3] = Stability in aqueous or 0.02N HCl aqueous solution; assay type: physicochemical; details: in words
[4] = system: Gram-positive and Gram-negative bacteria; experiment: Antibacterial activity against Gram-positive and Gram-negative bacteria; assay type: cell-based; details: in words
Protocol: as §1, §2

[5] = system: Escherichia coli NIHJ; experiment: Minimum inhibitory concentration, Escherichia coli NIHJ; assay type: cell-based; details: 0.5% peptone agar, 37° C., 17 hours
Protocol: as §1, §2

[6] = system: Pseudomonas fluorescens; experiment: Minimum inhibitory concentration, Pseudomonas fluorescens; assay type: cell-based; details: 0.5% peptone agar, 37° C., 17 hours
Protocol: as §1, §2

[7] = system: Micrococcus flavus FDA16; experiment: Minimum inhibitory concentration, Micrococcus flavus FDA16; assay type: cell-based; details: 0.5% peptone agar, 37° C., 17 hours
Protocol: as §1, §2

[8] = system: Proteus vulgaris OX-19; experiment: Minimum inhibitory concentration, Proteus vulgaris OX-19; assay type: cell-based; details: OX19, 0.5% peptone agar, 37° C., 17 hours
Protocol: as §1, §2

[9] = system: Proteus rettgeri GN466; experiment: Minimum inhibitory concentration, Proteus rettgeri GN466; assay type: cell-based; details: Providencia rettgeri, 0.5% peptone agar, 37° C., 17 hours
Protocol: as §1, §2

[10] = system: Klebsiella pneumoniae PCI602; experiment: Minimum inhibitory concentration, Klebsiella pneumoniae PCI602; assay type: cell-based; details: 0.5% peptone agar, 37° C., 17 hours
Protocol: as §1, §2

[11] = system: Escherichia coli K-12 ML1629; experiment: Minimum inhibitory concentration, Escherichia coli K-12 ML1629; assay type: cell-based; details: K12ML1629, 0.5% peptone agar, 37° C., 17 hours
Protocol: as §1, §2

[12] = system: Pseudomonas aeruginosa No. 12; experiment: Minimum inhibitory concentration, Pseudomonas aeruginosa No. 12; assay type: cell-based; details: 0.5% peptone agar, 37° C., 17 hours
Protocol: as §1, §2

[13] = system: Bacillus subtilis NRRL B-558; experiment: Minimum inhibitory concentration, Bacillus subtilis NRRL B-558; assay type: cell-based; details: NRRLB558, 0.5% peptone agar, 37° C., 17 hours
Protocol: as §1, §2

[14] = system: Mycobacterium smegmatis ATC607; experiment: Minimum inhibitory concentration, Mycobacterium smegmatis ATC607; assay type: cell-based; details: Mycolicibacterium smegmatis, 0.5% peptone agar, 37° C., 17 hours
Protocol: as §1, §2

[15] = system: Pseudomonas aeruginosa A3; experiment: Minimum inhibitory concentration, Pseudomonas aeruginosa A3; assay type: cell-based; details: 0.5% peptone agar, 37° C., 17 hours
Protocol: as §1, §2

[16] = system: Staphylococcus aureus Smith; experiment: Minimum inhibitory concentration, Staphylococcus aureus Smith; assay type: cell-based; details: 0.5% peptone agar, 37° C., 17 hours
Protocol: as §1, §2

[17] = system: Sarcina lutea PCI1001; experiment: Minimum inhibitory concentration, Sarcina lutea PCI1001; assay type: cell-based; details: Micrococcus luteus, 0.5% peptone agar, 37° C., 17 hours
Protocol: as §1, §2

[18] = system: Proteus rettgeri GN311; experiment: Minimum inhibitory concentration, Proteus rettgeri GN311; assay type: cell-based; details: Providencia rettgeri, 0.5% peptone agar, 37° C., 17 hours
Protocol: as §1, §2

[19] = system: Serratia marcescens; experiment: Minimum inhibitory concentration, Serratia marcescens; assay type: cell-based; details: 0.5% peptone agar, 37° C., 17 hours
Protocol: as §1, §2

[20] = system: Staphylococcus aureus FDA209P; experiment: Minimum inhibitory concentration, Staphylococcus aureus FDA209P; assay type: cell-based; details: 0.5% peptone agar, 37° C., 17 hours
Protocol: as §1, §2

| SMILES | MIC [1] | MIC [2] | stability in aqueous solution (general statement) [3] | inhibition of growth of Gram-positive and Gram-negative bacteria [4] | MIC [5] | MIC [6] | MIC [7] | MIC [8] | MIC [9] | MIC [10] | MIC [11] | MIC [12] | MIC [13] | MIC [14] | MIC [15] | MIC [16] | MIC [17] | MIC [18] | MIC [19] | MIC [20] |
| --- | --- | --- | --- | --- | --- | --- | --- | --- | --- | --- | --- | --- | --- | --- | --- | --- | --- | --- | --- | --- |
| CN(CC(=O)O)NC(=O)C[C@H](N)CCCN [Deoxynegamycin] | 3.13 µg/mL (≈ 13.5 µM) | 0.78 µg/mL (≈ 3.36 µM) | quite stable in aqueous solution | active against Gram-positive and Gram-negative bacteria | 6.25 µg/mL (≈ 26.9 µM) | 3.13 µg/mL (≈ 13.5 µM) | 50 µg/mL (≈ 215 µM) | 3.13 µg/mL (≈ 13.5 µM) | 3.13 µg/mL (≈ 13.5 µM) | 6.25 µg/mL (≈ 26.9 µM) | 3.13 µg/mL (≈ 13.5 µM) | 50 µg/mL (≈ 215 µM) | 100 µg/mL (≈ 431 µM) | 50 µg/mL (≈ 215 µM) | 25 µg/mL (≈ 108 µM) | 6.25 µg/mL (≈ 26.9 µM) | > 100 µg/mL | 6.25 µg/mL (≈ 26.9 µM) | 25 µg/mL (≈ 108 µM) | 25 µg/mL (≈ 108 µM) |
| CO[C@@H](CN)C[C@@H](N)CC(=O)NN(C)CC(=O)O [O-Methylnegamycin] | 3.13 µg/mL (≈ 11.9 µM) | 1.56 µg/mL (≈ 5.95 µM) | quite stable in aqueous solution | active against Gram-positive and Gram-negative bacteria | 6.25 µg/mL (≈ 23.8 µM) | 1.56 µg/mL (≈ 5.95 µM) | 50 µg/mL (≈ 191 µM) | 1.56 µg/mL (≈ 5.95 µM) | 3.13 µg/mL (≈ 11.9 µM) | 6.25 µg/mL (≈ 23.8 µM) | 1.56 µg/mL (≈ 5.95 µM) | 25 µg/mL (≈ 95.3 µM) | 50 µg/mL (≈ 191 µM) | 25 µg/mL (≈ 95.3 µM) | 12.5 µg/mL (≈ 47.7 µM) | 6.25 µg/mL (≈ 23.8 µM) | 25 µg/mL (≈ 95.3 µM) | 6.25 µg/mL (≈ 23.8 µM) | 25 µg/mL (≈ 95.3 µM) | 12.5 µg/mL (≈ 47.7 µM) |
